Experimental data as given in the supplement of paper PMC6045584.
± gives the standard deviation of the averaged measurements.

compound: CC[C@@]1(O)C(=O)OCc2c1cc1n(c2=O)Cc2cc3ccccc3nc2-1 [CAMPTOTHECIN]; experiment: surviving fraction relative to DMSO-only wells; higher = less growth inhibition; details: 0.5 nM; exposure time: 5 days
How it was run: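 Surviving fraction is CellTiter-Glo luminescence divided by the median of wells given DMSO only. For this, log-phase tumour cell lines went into 384-well plates at 250–500 cells per well and, 24 hours later, into five days of continuous inhibitor exposure at 0.5, 1, 5, 10, 50, 100, 500 and 1000 nM. Lines were screened three times and retained only if replicate Pearson r >0.7 and median Z' >0.3.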

Test System	surviving fraction
143B BONE	0.911 ± 0.076
ASKA SYNOVIAL	0.303 ± 0.029
BT20 BREAST	0.764 ± 0.067
BT549 BREAST	0.743 ± 0.096
CADOES1 SOFT TISSUE	0.886 ± 0.088
CCK81 LARGE INTESTINE	0.789 ± 0.034
CHLA90 AUTONOMIC GANGLIA	0.318 ± 0.011
CME SYNOVIAL	0.013 ± 0.0036
HCC78 LUNG	0.33 ± 0.059
HCC202 BREAST	1.05 ± 0.027
HMLE3 BREAST	0.304 ± 0.027
HMT3552 BREAST	0.955 ± 0.056
HS57T BREAST	0.826 ± 0.044
HT1080 SOFT TISSUE	0.956 ± 0.017
LM7 BONE	0.73 ± 0.032
MDAMB157 BREAST	0.857 ± 0.063
MFM223 BREAST	0.746 ± 0.07
MG63 BONE	0.873 ± 0.015

Test System	surviving fraction
NOS1 BONE	0.833 ± 0.15
RDES SOFT TISSUE	0.776 ± 0.076
SCC47 HEADNECK	0.917 ± 0.019
SG27 HEADNECK	0.702 ± 0.062
SG28 HEADNECK	0.21 ± 0.068
SG31 HEADNECK	0.444 ± 0.03
SG32 HEADNECK	0.308 ± 0.056
SIHA CERVIX	0.822 ± 0.017
SJSA1 BONE	1.18 ± 0.043
SNU475 LIVER	0.34 ± 0.0091
SUM44 BREAST	0.808 ± 0.15
SUM159 BREAST	0.915 ± 0.014
U2OS BONE	0.924 ± 0.055
VCAP PROSTATE	0.879 ± 0.094
VP229 BREAST	0.862 ± 0.018
YAMATO SYNOVIAL	0.118 ± 0.0092
ZR751 BREAST	0.774 ± 0.073

same assay, conditions: 1 nM; exposure time: 5 days

Test System	surviving fraction
143B BONE	0.9815 ± 0.00071
ASKA SYNOVIAL	0.641 ± 0.065
BT20 BREAST	0.744 ± 0.088
BT549 BREAST	0.672 ± 0.094
CADOES1 SOFT TISSUE	0.818 ± 0.1
CCK81 LARGE INTESTINE	0.805 ± 0.085
CHLA90 AUTONOMIC GANGLIA	0.835 ± 0.041
CME SYNOVIAL	0.14 ± 0.019
HCC78 LUNG	0.597 ± 0.15
HCC202 BREAST	0.866 ± 0.17
HMLE3 BREAST	0.85433 ± 0.00058
HMT3552 BREAST	0.944 ± 0.087
HS57T BREAST	0.849 ± 0.041
HT1080 SOFT TISSUE	0.925 ± 0.027
LM7 BONE	0.691 ± 0.08
MDAMB157 BREAST	0.911 ± 0.034
MFM223 BREAST	0.703 ± 0.03
MG63 BONE	0.871 ± 0.028

Test System	surviving fraction
NOS1 BONE	0.867 ± 0.02
RDES SOFT TISSUE	0.735 ± 0.1
SCC47 HEADNECK	0.924 ± 0.086
SG27 HEADNECK	0.888 ± 0.19
SG28 HEADNECK	0.771 ± 0.12
SG31 HEADNECK	0.911 ± 0.064
SG32 HEADNECK	0.492 ± 0.0071
SIHA CERVIX	0.889 ± 0.024
SJSA1 BONE	1.2 ± 0.06
SNU475 LIVER	0.828 ± 0.034
SUM44 BREAST	0.813 ± 0.082
SUM159 BREAST	0.937 ± 0.015
U2OS BONE	0.943 ± 0.054
VCAP PROSTATE	0.902 ± 0.052
VP229 BREAST	0.912 ± 0.14
YAMATO SYNOVIAL	0.562 ± 0.092
ZR751 BREAST	0.823 ± 0.12

same assay, conditions: 5 nM; exposure time: 5 days

Test System	surviving fraction
143B BONE	0.947 ± 0.025
ASKA SYNOVIAL	0.349 ± 0.032
BT20 BREAST	0.492 ± 0.089
BT549 BREAST	0.377 ± 0.018
CADOES1 SOFT TISSUE	0.0943 ± 0.0059
CCK81 LARGE INTESTINE	0.693 ± 0.16
CHLA90 AUTONOMIC GANGLIA	0.584 ± 0.031
CME SYNOVIAL	0.0177 ± 0.00058
HCC78 LUNG	0.0267 ± 0.0057
HCC202 BREAST	0.734 ± 0.082
HMLE3 BREAST	0.485 ± 0.027
HMT3552 BREAST	0.782 ± 0.031
HS57T BREAST	0.79 ± 0.011
HT1080 SOFT TISSUE	0.739 ± 0.034
LM7 BONE	0.422 ± 0.0056
MDAMB157 BREAST	0.674 ± 0.061
MFM223 BREAST	0.566 ± 0.047
MG63 BONE	0.434 ± 0.019

Test System	surviving fraction
NOS1 BONE	0.663 ± 0.067
RDES SOFT TISSUE	0.027 ± 0.001
SCC47 HEADNECK	0.959 ± 0.019
SG27 HEADNECK	0.867 ± 0.089
SG28 HEADNECK	0.579 ± 0.056
SG31 HEADNECK	0.607 ± 0.074
SG32 HEADNECK	0.336 ± 0.0083
SIHA CERVIX	0.857 ± 0.033
SJSA1 BONE	1.01 ± 0.15
SNU475 LIVER	0.635 ± 0.0066
SUM44 BREAST	0.835 ± 0.11
SUM159 BREAST	0.793 ± 0.018
U2OS BONE	0.948 ± 0.025
VCAP PROSTATE	0.801 ± 0.1
VP229 BREAST	0.794 ± 0.17
YAMATO SYNOVIAL	0.466 ± 0.035
ZR751 BREAST	0.693 ± 0.13

same assay, conditions: 10 nM; exposure time: 5 days

Test System	surviving fraction
143B BONE	0.83 ± 0.07
ASKA SYNOVIAL	0.242 ± 0.025
BT20 BREAST	0.197 ± 0.015
BT549 BREAST	0.103 ± 0.014
CADOES1 SOFT TISSUE	0.0577 ± 0.014
CCK81 LARGE INTESTINE	0.542 ± 0.097
CHLA90 AUTONOMIC GANGLIA	0.481 ± 0.05
CME SYNOVIAL	0.0897 ± 0.018
HCC78 LUNG	0.0123 ± 0.0031
HCC202 BREAST	0.691 ± 0.24
HMLE3 BREAST	0.3 ± 0.0056
HMT3552 BREAST	0.422 ± 0.0095
HS57T BREAST	0.505 ± 0.031
HT1080 SOFT TISSUE	0.361 ± 0.0046
LM7 BONE	0.232 ± 0.015
MDAMB157 BREAST	0.319 ± 0.058
MFM223 BREAST	0.573 ± 0.11
MG63 BONE	0.295 ± 0.0068
NOS1 BONE	0.494 ± 0.059
RDES SOFT TISSUE	0.0233 ± 0.00058
SCC47 HEADNECK	0.919 ± 0.016
SG27 HEADNECK	0.906 ± 0.021
SG28 HEADNECK	0.696 ± 0.099
SG31 HEADNECK	0.715 ± 0.1
SG32 HEADNECK	0.447 ± 0.071
